Assay: Relaxivity measurement, 1.0 T MRI scanner
Format: physicochemical
Conditions: room temperature
Procedure: A relaxivity study was performed by evaluating the longitudinal relaxation time T1 of HP—Au—Gd nanoparticles at different Gd concentrations at room temperature by using a 1.0 T-MRI scanner (ICON, Bruker Biospin, Ettlingen, Germany). The commercially available gadolinium contrast agent (Gadopentetic acid or Gd-DTPA) was used as the positive control. The contrast agents were initially placed into syringes and set in the center of the volume coil. The sample temperature was maintained at room temperature. By using the MRI scanner, horizontal single-slice T1-weighted MR images were acquired (spin echo, TR/TE=400/10 ms, slice thickness=2.0 mm, matrix=256×256, field of view (FOV)=38.4×38.4 mm, number of averages (NA)=10, number of slices=1). Horizontal single-slice inversion-recovery MRI was done to calculate the T1 and r1 by using rapid acquisition with relaxation enhancement (RARE) acquisition (TR=20,000 ms, TE=17 ms, inversion time=45, 100, 200, 400, 800, 1600, 3200, 6400, 8000, 10000, 12000 ms, matrix size=64×64, FOV=38.4×38.4 mm, slice thickness=2.0 mm, RARE factor=4, and NA=1). Then, the r1 relaxivities were calculated by using the following equation: r1=(1/T1-1/T1(0))/[Gd] where [Gd] is the concentration of Gd, and 1/T1(0) and 1/T1 are the longitudinal relaxation rate without and with paramagnetic species, respectively.

r1 relaxivity: 3.26 mM⁻¹ s⁻¹
SMILES: CNC[C@H](O)[C@@H](O)[C@H](O)[C@H](O)CO.CNC[C@H](O)[C@@H](O)[C@H](O)[C@H](O)CO.O=C([O-])CN(CCN(CC(=O)[O-])CC(=O)O)CCN(CC(=O)[O-])CC(=O)O.[Gd+3] [Gd-DTPA, Gadopentetic acid]

From patent US20230090223A1, “NANOPARTICLES FOR USE IN THE TREATMENT AND DIAGNOSIS OF CNS DISORDERS” (priority 2020, published 2023)
